What was measured:
[1] = system: MOLM-13 (carrying MLL-AF9); assay: Inhibition of proliferation of human tumor cells (Alamar Blue, 7 days), MOLM-13; format: cell-based; conditions: Homo sapiens, 168 h, MOLM-13 cells (carrying MLL-AF9), method calls the value GI50
In short: (§1)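 Cells seeded at 4,000/well (MV-4-11, MOLM-13) or 3,000/well (KG-1a), treated in duplicate with serial compound dilutions for 7 days at 37°C, 5% CO2. Alamar Blue fluorescence read on Day 7, normalised to 0.1% DMSO Day-7 (high) and Day-0 (low) controls; GI50 derived.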

[2] = target: T1, Menin-MLL (Homo sapiens, UniProt O00255); assay: Inhibitory activity against Menin-MLL binding (fluorescence polarization); conditions: fluorescence polarization; 150 nM His-Menin, 15 nM FITC-MLL; 25°C for 60 min; read-out: Menin-MLL IC50
T1 construct: His-Menin (M1-L615 end); purchased BIORTUS BP9210
T1 sequence (O00255 1-615 isoform O00255-1): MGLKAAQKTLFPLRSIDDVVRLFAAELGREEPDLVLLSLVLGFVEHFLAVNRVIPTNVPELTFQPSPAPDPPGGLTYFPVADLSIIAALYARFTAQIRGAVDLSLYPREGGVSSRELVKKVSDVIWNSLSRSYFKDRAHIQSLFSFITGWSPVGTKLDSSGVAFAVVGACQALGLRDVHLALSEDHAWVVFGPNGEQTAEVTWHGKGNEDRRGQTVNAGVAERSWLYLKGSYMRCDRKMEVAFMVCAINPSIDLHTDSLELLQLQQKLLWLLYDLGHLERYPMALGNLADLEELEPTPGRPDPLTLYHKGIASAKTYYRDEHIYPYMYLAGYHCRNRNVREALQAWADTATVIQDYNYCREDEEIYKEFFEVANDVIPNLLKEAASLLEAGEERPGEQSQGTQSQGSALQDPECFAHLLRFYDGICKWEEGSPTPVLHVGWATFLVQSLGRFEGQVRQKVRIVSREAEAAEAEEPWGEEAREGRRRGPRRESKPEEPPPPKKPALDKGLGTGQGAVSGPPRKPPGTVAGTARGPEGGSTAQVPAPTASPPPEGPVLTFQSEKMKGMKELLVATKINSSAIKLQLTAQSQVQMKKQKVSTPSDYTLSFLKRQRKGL
In short: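 His-Menin (M1-L615, 150 nM) preincubated with compound 15 min at 25 °C in HEPES pH 7.5, 50 mM NaCl, 1 mM DTT, 0.01% BSA, then 15 nM FITC-MLL4-43 peptide added for 60 min at 25 °C. Fluorescence polarization read; IC50 from 4-parameter logistic fit, duplicates.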

[3] = system: MV-4-11 (carrying MLL-AF4); assay: Inhibition of proliferation of human tumor cells (Alamar Blue, 7 days), MV-4-11; format: cell-based; conditions: Homo sapiens, MV4-11, 168 h, MV-4-11 cells (carrying MLL-AF4), method calls the value GI50
In short: as §1

Row | SMILES | IC50 [1] [nM] | IC50 [2] [nM] | IC50 [3] [nM]
1 | Cc1nc(F)c2c(-c3ccc(F)cc3C(=O)N3CCOC[C@H]3C)cc(C3CN(CC4CCOCC4)C3)cn12 [Example 232, (3R)-4-[5-fluoro-2-(1-fluoro-3-methyl-6-{1-[(oxacyclohexan-4-yl)methyl]azacyclobutan-3-yl}imidazo[1,5-a]pyridin-8-yl)benzoyl]-3-methylmorpholine] | 34 | 17.5 | 17
2 | Cc1nc(F)c2c(-c3ccc(F)cc3C(=O)N3[C@H](C)COC[C@H]3C)cc(C3CN(CC4CCN(C(=O)c5cncnc5)CC4)C3)cn12 [Example 234] | 14 | 11 | 5.8
3 | Cc1nc(F)c2c(-c3ccc(F)cc3C(=O)N3CCOC[C@H]3C)cc(C3CN([C@@H](C)C4CCOCC4)C3)cn12 [Example 238-2, (3R)-4-[5-fluoro-2-(1-fluoro-3-methyl-6-{1-[(1S)-1-(oxacyclohexan-4-yl)ethyl]azacyclobutan-3-yl}imidazo[1,5-a]pyridin-8-yl)benzoyl]-3-methylmorpholine] | 27 | 18 | 11
4 | Cc1nc(F)c2c(-c3ccc(F)cc3C(=O)N3[C@H](C)COC[C@H]3C)cc(C3CN(CC4CCN(C(=O)N5CC(F)(F)C5)CC4)C3)cn12 [Example 242] | 28 | 9.5 | 5.9
5 | Cc1ncc2c(-c3ccc(F)cc3C(=O)N3CCOC[C@H]3C)cc(C3CN(CC4CCOCC4)C3)cn12 [Example 243, (3R)-4-[5-fluoro-2-(3-methyl-6-{1-[(oxacyclohexan-4-yl)methyl]azacyclobutan-3-yl}imidazo[1,5-a]pyridin-8-yl)benzoyl]-3-methylmorpholine] | 200 | 31.5 | 42
6 | Cc1nc(F)c2c(-c3ccc(F)cc3C(=O)N3CCOC[C@H]3C)cc(C3CN(C(CC[C@H]4CNCCO4)C(C)C)C3)cn12 (stereo partly drawn) [Example 244, (3R)-4-{5-fluoro-2-[1-fluoro-3-methyl-6-(1-{4-methyl-1-[(2S)-morpholin-2-yl]pentan-3-yl}azacyclobutan-3-yl)imidazo[1,5-a]pyridin-8yl]benzoyl}-3-methylmorpholine] | 64 | 17 | 13
7 | Cc1nc(F)c2c(-c3ccc(F)cc3C(=O)N3CCOC[C@H]3C)cc(C3CN([C@@H](CC[C@H]4CNCCO4)C(C)C)C3)cn12 [Example 244-2, (3R)-4-[5-fluoro-2-(1-fluoro-3-methyl-6-{1-[(3S)-4-methyl-1-[(2S)-morpholin-2-yl]pentan-3-yl]azacyclobutan-3-yl}imidazo[1,5-a]pyridin-8yl)benzoyl]-3-methylmorpholine] | 130 | 34 | 54
8 | Cc1nc(F)c2c(-c3ccc(F)cc3C(=O)N3[C@H](C)COC[C@H]3C)cc(C3CN(CC4CCN(C(=O)c5cn[nH]c5)CC4)C3)cn12 [Example 247] | 22 | 9.5 | 9.2
9 | Cc1nc(F)c2c(-c3ccc(F)cc3C(=O)N3CCOC[C@H]3C)cc(C3CN(CC4CCN(C(=O)C5(O)CC5)CC4)C3)cn12 [Example 248] | 63 | 30.5 | 34
10 | Cc1nc(F)c2c(-c3ccc(F)cc3C(=O)N3CCOC[C@H]3C)cc(C3CN(CC4CCN(C(=O)CC#N)CC4)C3)cn12 [Example 249] | 44 | 24 | 50
11 | CNC(=O)N1CCC(CN2CC(c3cc(-c4ccc(F)cc4C(=O)N4CCOC[C@H]4C)c4c(F)nc(C)n4c3)C2)CC1 [Example 250] | 45 | 17 | 26
12 | Cc1nc(F)c2c(-c3ccc(F)cc3C(=O)N3CCOC[C@H]3C)cc(C3CN(CC4CCN(C(=O)N5CC(F)(F)C5)CC4)C3)cn12 [Example 258] | 49 | 50 | 36
13 | COC(=O)N1CCC(CN2CC(c3cc(-c4ccc(F)cc4C(=O)N4CCOC[C@H]4C)c4c(F)nc(C)n4c3)C2)CC1 [Example 259] | 110 | 59 | 55
14 | Cc1nc(F)c2c(-c3ccc(F)cc3C(=O)N3CCOC[C@H]3C)cc(C3CN(CC4CCN(c5cncnc5)CC4)C3)cn12 [Example 266, (3R)-4-{5-fluoro-2-[1-fluoro-3-methyl-6-(1-{[1-(pyrimidin-5-yl)piperidin-4-yl]methyl}azacyclobutan-3-yl)imidazo[1,5-a]pyridin-8yl]benzoyl}-3-methylmorpholine] | 33 | 13 | 13
15 | Cc1nc(F)c2c(-c3ccc(F)cc3C(=O)N3CCOC[C@H]3C)cc(C3CN(C[C@H]4CC[C@@H](n5cncn5)CC4)C3)cn12 [Example 267, (3R)-4-{5-fluoro-2-[1-fluoro-3-methyl-6-(1-{[(1s,4s)-4-(1H-1,2,4-triazol-1-yl)cyclohexyl]methyl}azacyclobutan-3-yl)imidazo[1,5-a]pyridin-8yl]benzoyl}-3-methylmorpholine] | 45 | 12 | 20
16 | Cc1nc(F)c2c(-c3ccc(F)cc3C(=O)N3CCOC[C@H]3C)cc(C3CN(CC4CCN(C(=O)C(F)F)CC4)C3)cn12 [Example 268] | 96 | 32.5 | 36
17 | Cc1nc(F)c2c(-c3ccc(F)cc3C(=O)N3CCOC[C@H]3C)cc(C3CN(CC4CCN(C(=O)C5CC5)CC4)C3)cn12 [Example 269] | 83 | 33.5 | 37
18 | Cc1nc(F)c2c(-c3ccc(F)cc3C(=O)N3CCOC[C@H]3C)cc(C3CN(CC4CCN(C(=O)CC(C)C)CC4)C3)cn12 [Example 271] | 33 | 27 | 12
19 | Cc1nc(F)c2c(-c3ccc(F)cc3C(=O)N3CCOC[C@H]3C)cc(C3CN([C@@H](C)C4CCN(C(=O)C5(O)CC5)CC4)C3)cn12 [Example 278] | 24 | 11 | 8.3
20 | CCNC(=O)N1CCC([C@H](C)N2CC(c3cc(-c4ccc(F)cc4C(=O)N4CCOC[C@H]4C)c4c(F)nc(C)n4c3)C2)CC1 [Example 279] | 7.4 | 6 | 3.3
21 | CCNC(=O)N1CCC(C(C)N2CC(c3cc(-c4ccc(F)cc4C(=O)N(CC)C(C)C)c4c(F)nc(C)n4c3)C2)CC1 (stereo not drawn) [Example 282, N-ethyl-4-{1-[3-(8-{2-[ethyl(isopropyl)aminoformyl]-4-fluorophenyl}-1-fluoro-3-methylimidazo[1,5-a]pyridin-6-yl)azacyclobutan-1-yl]ethyl}piperidin-1-formamide] | 25 | 4 | 5.4
22 | CCNC(=O)N1CCC(C(C)N2CC(c3cc(-c4ccc(F)cc4C(=O)N(CC)C(C)C)c4cnc(C)n4c3)C2)CC1 (stereo not drawn) [Example 285] | 23 | 4 | 5.4
23 | CCN(C(=O)c1cc(F)ccc1-c1cc(C2CN(C(C)C3CCN(C(C)=O)CC3)C2)cn2c(C)nc(F)c12)C(C)C (stereo not drawn) [Example 288] | 55 | 6 | 15
24 | CCNC(=O)N1CCC(CN2CC(c3cc(-c4ccc(F)cc4C(=O)N(CC)C(C)C)c4cnc(C)n4c3)C2)CC1 [Example 290] | 24 | 4 | 5.2
25 | CCCC(=O)N1CCC([C@H](C)N2CC(c3cc(-c4ccc(F)cc4C(=O)N4CCOC[C@H]4C)c4c(F)nc(C)n4c3)C2)CC1 [Example 294] | 46 | 9.5 | 4.9
26 | CCC(=O)N1CCC([C@H](C)N2CC(c3cc(-c4ccc(F)cc4C(=O)N4CCOC[C@H]4C)c4c(F)nc(C)n4c3)C2)CC1 [Example 295] | 47 | 5 | 19
27 | CCN(C(=O)c1cc(F)ccc1-c1cc(CC2CN([C@H](CCCN(C)CCOC)C(C)C)C2)n2c(C)cncc12)C(C)C [Example 296-1, N-ethyl-5-fluoro-2-[6-({1-[(3R)-6-[(2-methoxyethyl)(methyl)amino]-2-methylhexan-3-yl]azacyclobutan-3-yl}methyl)-4-methylpyrrolo[1,2-a]pyrazin-8-yl]-N-(isopropyl)benzamide] | 3 | 1 | 0.75

— patent EP4782453A1 (Beyang Therapeutics Co., Ltd., priority 2023, dated 2025)
